Data published in US20230219912A1, “HALOGENATED BENZOTHIADIAZINES FOR THE TREATMENT OF CANCER” (BOARD OF REGENTS OF THE UNIVERSITY OF NEBRASKA, priority 2020, published 2023).
“Also recorded” adds a separate entry of the source.

Key:
[1] = tested on: MDA-MB-468 triple negative breast cancer cells; experiment: MTS cytotoxicity assay in MDA-MB-468 triple negative breast cancer cells; type: cell-based; details: 10, 50 and 100 μM for 24, 48 and 72 hours, MTS
Procedure: The assay was performed as follows.
Derivatives were dosed at 10, 50 and 100 μM for 24, 48 and 72 hours and cell viability measured by MTS assay (FIG. 5).

IRAK1 = IRAK1 (Homo sapiens, UniProt P51617); details: 100 μM; cited from earlier work
DYRK1A = DYRK1A (Homo sapiens, UniProt Q13627); details: 100 μM; cited from earlier work
[2] = tested on: 22Rv1 prostate cancer cells; experiment: MTS cytotoxicity assay in 22Rv1 prostate cancer cells; details: for effect on cell viability of prostate cancer cells: 100 μM up to 72 hours
How it was run: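 Cells seeded at 1×10^5 per well and dosed after 24 h at the indicated concentrations (final DMSO <1%), then incubated 48-72 hours at 37° C, 5% CO2. MTS added for 2-4 hr; absorbance at 490 nm, viability expressed as percentage of controls.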

MDA-MB-468 TNBC cells = details: cited from earlier work

IRAK1, sequence (P51617 whole entry): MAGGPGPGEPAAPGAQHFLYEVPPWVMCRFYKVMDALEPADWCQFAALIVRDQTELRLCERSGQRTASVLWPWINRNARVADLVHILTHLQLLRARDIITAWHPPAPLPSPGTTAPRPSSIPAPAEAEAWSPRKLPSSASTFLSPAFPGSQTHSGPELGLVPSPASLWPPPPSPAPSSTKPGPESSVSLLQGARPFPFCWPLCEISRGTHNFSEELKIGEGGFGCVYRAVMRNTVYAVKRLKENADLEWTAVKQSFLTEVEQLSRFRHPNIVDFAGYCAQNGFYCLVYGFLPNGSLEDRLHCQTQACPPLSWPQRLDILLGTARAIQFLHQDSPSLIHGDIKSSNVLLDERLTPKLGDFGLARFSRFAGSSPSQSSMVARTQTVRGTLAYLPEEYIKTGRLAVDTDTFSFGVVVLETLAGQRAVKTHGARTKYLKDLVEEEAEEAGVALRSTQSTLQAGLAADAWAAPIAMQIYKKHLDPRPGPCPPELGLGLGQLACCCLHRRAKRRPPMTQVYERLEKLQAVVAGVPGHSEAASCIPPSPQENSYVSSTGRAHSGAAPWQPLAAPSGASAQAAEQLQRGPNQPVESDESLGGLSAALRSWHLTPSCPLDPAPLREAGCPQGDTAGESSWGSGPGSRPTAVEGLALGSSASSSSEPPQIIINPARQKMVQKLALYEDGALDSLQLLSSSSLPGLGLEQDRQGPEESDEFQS

CC1=Nc2ccc(Cl)cc2S(=O)(=O)N1 [Diazoxide, 7-chloro-3-methyl-2H-1,2,4-benzothiadiazine 1,1-dioxide, reference compound]
effect on MDA-MB 468 TNBC cell viability [1]: no effect to reduce cell viability; also recorded: little activity to reduce TNBC cell viability | effect on MDA-MB 468 TNBC cell viability ([1]; listed as 9): no effect on cell viability | inhibition of IRAK1 (IRAK1): 9% | inhibition of DYRK1A (DYRK1A): 7% | effect on cell viability of prostate cancer cells [2]: no effect to reduce cell viability | effect on cell viability of prostate cancer cells ([2]; listed as 9): no effect on cell viability | cytotoxicity at 100 µM ([2]; Homo sapiens, 22Rv1, 48 h, read-out: reduction of 22Rv1 cell viability): 12% | IC50 (MDA-MB-468 TNBC cells): 0.87 µM
